Assay [1] relates to Gram-positive organisms (ATCC and CAN-ICU strains). Nature of the assay: MIC, Gram-positive organisms (compounds ending in A). Type of assay: cell-based. The following applies: in words; Table 3 organisms. The procedure:
(§1) The minimum inhibitory concentrations (MIC) in μg/mL were determined using established methods (Clinical and Laboratory Standards Institute, 2006) and are shown in Table 3 (FIG. 17). Gentamicin, neomycin B and kanamycin A served as positive controls.

Assay [2] has as its system Gram-negative organisms (ATCC and CAN-ICU strains). Nature of the assay: MIC, Gram-negative organisms (compounds ending in A). Type of assay: cell-based. The following applies: in words; Table 3 organisms. The procedure:
as §1

Assay [3] relates to methicillin-resistant S. aureus (MRSA) ATCC 33592. In words: MIC, antibiotic susceptibility testing, MRSA. In kind it is cell-based, Staphylococcus aureus. The settings on record: for fold enhancement against MRSA when compared to neomycin: vs neomycin. The method, then: (§2) Standard reference antibiotic susceptibility testing methods (NCCLS[CLS] (Clinical and Laboratory Standards Institute, 2006)) agar or dilutional methods was used to assess the activity of all prepared antimicrobials. Compounds were tested against Gram-positive strains including S. aureus, methicillin-resistant S. aureus (MRSA), S. epidermidis, methicillin-resistant S. epidermidis (MRSE) and S. pneumoniae as well as Gram-negative strains E. coli, gentamycin resistant E. coli and P. aeruginosa. Gentamycin and neomycin served as positive controls. MIC values defined as the lowest concentration of antimicrobial agent which inhibits the development of visible growth after 24 h at 37° C. was determined.
as §1

In assay [4] the test system is P. aeruginosa (ATCC 27853). Nature of the assay: MIC, P. aeruginosa (compounds 13-31). In kind it is cell-based, Pseudomonas aeruginosa. The settings on record: in words; among neomycin-lipid conjugates. The procedure:
as §2

In assay [5] the test system is Microorganisms from ATCC and CAN-ICU. In words: MIC, all investigated bacteria (compounds ending in A). Type of assay: cell-based. The following applies: in words; vs 4A. The procedure:
as §1

For the next assay, the system named is E. coli (ATCC 25922). Nature of the assay: MIC, E. coli (compounds 13-31). Type of assay: cell-based. The settings on record: in words. The procedure:
as §2

In assay [6] the test system is gentamycin resistant E. coli (ATCC 6174). Nature of the assay: MIC, gentamycin resistant E. coli (compounds 13-31). The following applies: in words. Type of assay: cell-based. The procedure: as §2
The subject of assay [7] is methicillin-resistant S. epidermidis (MRSE) (ATCC 14990). Nature of the assay: MIC, antibiotic susceptibility testing, MRSE (compounds 13-31). Type of assay: cell-based, Staphylococcus epidermidis. The following applies: vs kanamycin A. The procedure: as §2
The test system of a further assay is MRSA. The following applies: fatty acid against MRSA; cited from earlier work.
The subject of assay [8] is MSSA (methicillin-susceptible S. aureus). The following applies: fatty acid against MSSA; cited from earlier work.

In brackets after ≈: the same amount, converted by molar mass.

A word on the MIC: it is the lowest concentration that inhibits growth of the organism.

For “1,3,2′,6′,2′″,6′″-Hexaammonium-6,3′,4′,2″,5″,4′″-hexa-β-phenylcarbamoyl-5″-hexadecanoyl-5″-deoxy-neomycin-hexafluoroacetate [Compound 7A]”, the Gram-positive antibacterial activity result in assay [1] is “poor”. The Gram-negative activity entry in assay [2] is reported as “poor”.
For the compound “1,3,2′,6′,2′″,6″-Hexaammonium-5″-deoxy-5″-N-(hexadecanoyl)-neomycin hexakis(trifluoroacetate) [Compound 15]”, the “fold enhancement against MRSA when compared to neomycin” value in [3] (MRSA) came to 32 fold.
Regarding “1,3,2′,6′,2′″,6″-Hexaammonium-5″-deoxy-5″-N-(nonadecanoyl)-neomycin hexakis(trifluoroacetate) [Compound 16]”, the “antimicrobial activity against P. aeruginosa” value in assay [4] is recorded as “optimal”. In addition, the “fold enhancement against MRSA when compared to neomycin” value in [3] (MRSA) was found to be 32 fold.
For “1,3,2′,6′-Tetraammonium-4,5,3′,4′-tetra-O-phenylcarbamoyl-neamine-tetrafluoroacetate [Compound 17A]”, the Gram-positive antibacterial activity result in [1] is “reduced”. In addition, the Gram-negative activity result in assay [2] is “higher”.
On to “1,3,6′,3″-Tetraammonium-5,2′,4′,2″,3″,4″-hexa-O-phenylcarbamoyl-6″ hexadecanoyl-6″-deoxy-kanamycin-tetrafluoroacetate [Compound 14A]”, for which, in [1], the Gram-positive antibacterial activity entry is listed as “poor”. The Gram-negative activity result in [2] is given as “poor”.
With “1,3,6′,3″-Tetraammonium-5,2″,4″,6″,2′″,3′″,4′″-hepta-β-phenylcarbamoyl-6″-deoxy-kanamycin-tetrafluoroacetate [Compound 11A]”, in [1], the Gram-positive antibacterial activity entry is “reduced”. Also, the Gram-negative activity result in assay [2] is recorded as “poor”.
“3,6′,3″,1′″-Tetraammonium-5,2′,4′,2″,3″,4″-hexa-O-phenylcarbamoyl-6″-deoxy-amikacin-tetrafluoroacetate [Compound 20A]”: the Gram-positive antibacterial activity entry in assay [1] was “reduced”. Further, the Gram-negative activity entry in assay [2] is reported as “poor”.
Regarding “4,3′,4′,2″,5″3′″,4″-Hexa-O-phenylcarbamoyl-1,3,2′,6′,2′″,6′″-hexa-N-(guanidinyl)-5″-deoxy-neomycin-hexafluoroacetate [Compound 9A]”, in [5], the “antibacterial activity when compared to 4A” value is given as “slightly reduced”.
Take `CCCCCC(=O)NCC1OC(OC2C(O)C(N)CC(N)C2OC2OC(CN)C(O)C(O)C2N)C(O)C1OC1OC(CN)C(O)C(O)C1N.O=C(O)C(F)(F)F.O=C(O)C(F)(F)F.O=C(O)C(F)(F)F.O=C(O)C(F)(F)F.O=C(O)C(F)(F)F.O=C(O)C(F)(F)F` (stereo not drawn) [Compound 13, 1,3,2′,6′,2′″,6″-Hexaammonium-5″-deoxy-5″-N-(hexanoyl)-neomycin hexakis(trifluoroacetate)]: in the assay on E. coli (ATCC 25922), the “activity against E. coli relative to the C16- or C20-lipid conjugates” value was “stronger activity”. For the same compound, the “activity against gentamycin-resistant E. coli relative to the C16- or C20-lipid conjugates” value in [6] is on record as “stronger activity”.
As for `CCCCCCCCCCCCCCCC(=O)NCC1OC(OC2C(N)CC(N)C(OC3OC(CN)C(O)C(O)C3O)C2O)C(O)C(N)C1O.O=C(O)C(F)(F)F.O=C(O)C(F)(F)F.O=C(O)C(F)(F)F.O=C(O)C(F)(F)F` (stereo not drawn) [Compound 30, 1,3,6′,3″-Tetraammonium-6″-deoxy-6″-N-(hexadecanoyl)-kanamycin-tetrakis-(trifluoroacetate)], the “fold enhancement in antimicrobial activity against MRSE when compared to unmodified kanamycin A” value in assay [7] was 56 fold. In addition, the “fold enhancement in antimicrobial activity against MRSA when compared to unmodified kanamycin A” value in assay [3] (MRSA, vs kanamycin A) amounted to 35 fold.
As to `CCCCCCCCCCCC(=O)O` [lauric acid], the MIC (in the assay with MRSA; in assay [8]) was 400 µg/mL (≈ 2000 µM) each time.
With neomycin [reference compound], in assay [3] (against MRSA, 24 h at 37° C.), the MIC was ~8 µg/mL.

(Values after patent publication US8865664B2, “Hydrophobically enhanced aminoglycosides” (University of Manitoba, priority 2008, dated 2014).)
